# Assay results as given in the Kinase Knowledgebase extract (Sharma et al. 2016).
# Where “and” joins values, the source holds several entries; their conditions need not be identical. Equal entries are not always repeated.
# Biological target: CDK2 (human) (UniProt P24941)
# Experiment: Enzyme Assay
row,Structure (SMILES),IC50
1,C1=CCOCc2cc(ccc2OCCN2CCCC2)Nc2nccc(n2)-c2cccc(c2)COC1,1000 to 5000 nM
2,C1=CCOCc2cc(ccc2OCCN2CCCC2)Nc2nccc(n2)-c2coc(c2)COC1,> 5000 nM
3,CCN(CC)CCOc1ccc2cc1COCC=CCOCc1cccc(c1)-c1ccnc(n1)N2,1000 to 5000 nM
4,CN1CC=CCC(=O)Nc2cccc(c2)-c2ccnc(n2)Nc2cccc(c2)C1,1000 to 5000 nM
5,C1=CCOCc2cc(ccc2OCCN2CCCC2)Nc2nccc(n2)-c2cncc(c2)COC1,1000 to 5000 nM
6,c1cc2cc(c1)-c1ccnc(n1)Nc1ccc(OCCN3CCCC3)c(c1)COCC1CC1COC2 (stereo unspecified),1000 to 5000 nM
7,C1=CCOCc2cc(ccc2OCCN2CCCC2)Nc2nccc(n2)-c2csc(c2)COC1,> 5000 nM
8,Fc1cc2cc(c1)-c1ccnc(n1)Nc1ccc(OCCN3CCCC3)c(c1)COCC=CCCO2,1000 to 5000 nM
9,CCN(CC)CCOc1ccc2cc1COCC=CCCOc1cccc(c1)-c1ccnc(n1)N2,> 5000 nM
10,C1=CCOCc2cc(ccc2N2CCOCC2)Nc2nccc(n2)-c2cccc(c2)COC1,> 5000 nM
11,COc1ccc2cc1COCC=CCOc1cccc(c1)-c1ccnc(n1)N2,≤ 1000 nM and > 5000 nM
12,CN1CC=CCCOc2cccc(c2)-c2ccnc(n2)Nc2cc(ccn2)C1,1000 to 5000 nM
13,O=C1CCC=CCOCc2cccc(c2)Nc2nccc(n2)-c2cccc(c2)N1,1000 to 5000 nM
14,CCN(CC)CCOc1ccc2cc1COCC=CCCOc1cccc(c1)-c1nc(ncc1C)N2,> 5000 nM
15,COc1cc2cc(c1OCCN1CCCC1)COCC=CCOCc1cccc(c1)-c1ccnc(n1)N2,1000 to 5000 nM
16,COc1ccc2cc1COCC=CCOCc1cc(ccc1OCCN1CCCC1)Nc1nccc-2n1,> 5000 nM
17,C1=CCOCc2cc(ccc2OCCN2CCCC2)Nc2nccc(n2)C2=CC=C(COC1)S2,> 5000 nM
18,O=C1NCC=CCOCc2cccc(c2)Nc2nccc(n2)-c2cccc1c2,> 5000 nM
19,CN1CC=CCOCC2=CC=C(O2)c2ccnc(n2)Nc2cccc(c2)C1,≤ 1000 nM
20,C1=CCOCc2cc(ccc2OCCN2CCCC2)Nc2nccc(n2)C2=CC=C(COC1)O2,> 5000 nM
21,CCN(CC)CCOc1ccc2cc1COCC=CCCOc1cc(ccc1OC)-c1ccnc(n1)N2,> 5000 nM
22,C1=CCOCc2cc(ccc2OCCN2CCCC2)Nc2nccc(n2)-c2cc(co2)COC1,> 5000 nM
23,CN1CCN(c2ccc3cc2COCC=CCOCc2cccc(c2)-c2ccnc(n2)N3)CC1,> 5000 nM
24,C1=CCN(C2CC2)Cc2cccc(c2)Nc2nccc(n2)-c2cccc(c2)OCC1,≤ 1000 nM
25,Fc1ccc2cc1COCC=CCOCc1cc(ccc1OCCN1CCCC1)Nc1nccc-2n1,1000 to 5000 nM
26,C1=CCN(C2CC2)Cc2cc(ccc2OCCN2CCOCC2)Nc2nccc(n2)-c2cccc(c2)OCC1,≤ 1000 nM

# Now from value to molecule:
row,IC50,Structure (SMILES)
1,≤ 1000 nM,CN1CC=CCCOc2cccc(c2)-c2ccnc(n2)Nc2cc(N)cc(c2)C1
2,≤ 1000 nM,CCS(=O)(=O)CCOc1ccc2cc1CN(C)CC=CCCOc1cccc(c1)-c1ccnc(n1)N2
3,≤ 1000 nM,CN1CC=CCCOc2cc(F)cc(c2)-c2ccnc(n2)Nc2ccc(OCCN3CCCC3)c(c2)C1
4,≤ 1000 nM,CN1CC=CCCOc2cccc(c2)-c2ccnc(n2)Nc2ccc(OCCn3cncn3)c(c2)C1
5,≤ 1000 nM,CN1Cc2cccc(c2)Nc2nccc(n2)-c2cccc(c2)OCCC2CC2C1 (stereo unspecified)
6,≤ 1000 nM,Cc1cnc2nc1-c1cccc(c1)OCCC=CCN(C)Cc1cccc(c1)N2
7,≤ 1000 nM,CN1CC=CCCOc2cccc(c2)-c2ccnc(n2)Nc2ccc(OCCN3CCOCC3)c(c2)C1
8,≤ 1000 nM,C1=CCNCc2cccc(c2)Nc2nccc(n2)-c2cccc(c2)OCC1
9,≤ 1000 nM,CCN(CC)CCOc1ccc2cc1CN(C)CC=CCCOc1cccc(c1)-c1ccnc(n1)N2
10,≤ 1000 nM,CN1CC=CCCOc2cccc(c2)-c2ccnc(n2)Nc2ccc(OCCN3CCCCC3)c(c2)C1
11,≤ 1000 nM,CN1CC=CCCOc2cc(ccc2N)-c2ccnc(n2)Nc2cccc(c2)C1
12,≤ 1000 nM,CN1CC=CCCOc2cccc(c2)-c2ccnc(n2)Nc2ccc(OCCN3CCCC3)c(c2)C1
13,≤ 1000 nM,CN1CC=CCCOc2cccc(c2)-c2ccnc(n2)Nc2ccc(N3CCOCC3)c(c2)C1
14,≤ 1000 nM,CN1CC=CCCOc2cc(F)cc(c2)-c2ccnc(n2)Nc2cccc(c2)C1
15,≤ 1000 nM,CN1CC=CCOCC2=CC=C(S2)c2ccnc(n2)Nc2ccc(OCCN3CCCC3)c(c2)C1
